Source: patent US7670604B2, “Vimentin directed diagnostics and therapeutics for multidrug resistant neoplastic disease” (Aurelium Biopharma, Inc., priority 2002, dated 2010)
pIC50: −log10 of the molar value. Entries after “also recorded” stand apart in the source; their conditions may differ.

Legend:
[1] = system: MDA cells; assay: Induction of surface exposure of vimentin by drugs, intact cell radioimmunoassay; type: cell-based; conditions: 1 or 10 μM taxol, 1 or 10 μM doxorubicin, 0.1 or 1 μM mitoxanthrone, 12 to 16 hours
[2] = system: E3 target cells; conditions: Pietersz et al. 1988; cited from earlier work
[3] = Rowland et al. 1993; cited from earlier work
[4] = system: hematological tumor cells; assay: Vimentin vaccination of mice injected with hematological tumor cells; type: in vivo; conditions: mice vaccinated prior to injection of the tumor cells
[5] = system: antigen-positive E3 cell line; conditions: Krauer et al. 1992, read-out: IC50 (cytotoxicities); cited from earlier work
[6] = system: lysosomal hydrolases; conditions: cited from earlier work

## O=C1c2c(O)ccc(O)c2C(=O)c2c(NCCNCCO)ccc(NCCNCCO)c21 [mitoxanthrone]
[1]
  induction of surface exposure of vimentin: slight induction; also recorded: most significant effect

## COc1cccc2c1C(=O)c1c(O)c3c(c(O)c1C2=O)C[C@@](O)(C(=O)CO)C[C@@H]3O[C@H]1C[C@H](N)[C@H](O)[C@H](C)O1 [doxorubicin]
[1]
  induction of surface exposure of vimentin: slight induction

## CC(=O)O[C@H]1C(=O)[C@@]2(C)[C@H]([C@H](OC(=O)c3ccccc3)[C@]3(O)C[C@H](OC(=O)[C@H](O)[C@@H](NC(=O)c4ccccc4)c4ccccc4)C(C)=C1C3(C)C)[C@]1(OC(C)=O)CO[C@@H]1C[C@@H]2O [taxol]
[1]
  induction of surface exposure of vimentin: slight induction

## CC(=O)[C@]1(O)Cc2c(O)c3c(c(O)c2[C@@H](O[C@H]2C[C@H](N)[C@H](O)[C@H](C)O2)C1)C(=O)c1ccccc1C3=O [Ida, Idarubicin]
[2]
  pIC50: 6.92
[3]
  activities: 12 nM

## vimentin: purified full length murine vimentin protein used as vaccine antigen, may be given with adjuvant
[4]
  tumor size versus mice not vaccinated: smaller

## O=c1[nH]c(=O)n([C@H]2C[C@H](O)[C@@H](CO)O2)cc1F [FUDR, 5-fluoro-2′-deoxyuridine]
[5]
  pIC50: 9.40

## COc1cccc2c1C(=O)c1c(O)c3c(c(O)c1C2=O)CC(O)(C(C)=O)CC3OC1CC(NC(=O)C(CC(C)C)NC(=O)C(C)N)C(O)C(C)O1 (stereo not drawn) [Ala-Leu-Dau derivative]
[6]
  time for conversion back to the free drug: 2 h
